{
  "source": "patent US6489321B1",
  "about": "“Nonpeptide substituted benzothiazepines as vasopressin antagonists” (Ortho-McNeil Pharmaceutical, Inc., priority 1999, dated 2002)",
  "key": {"vasopressin V1a receptor": {"target": "vasopressin V1a receptor (Homo sapiens, UniProt P37288)", "sequence (P37288 whole entry)": "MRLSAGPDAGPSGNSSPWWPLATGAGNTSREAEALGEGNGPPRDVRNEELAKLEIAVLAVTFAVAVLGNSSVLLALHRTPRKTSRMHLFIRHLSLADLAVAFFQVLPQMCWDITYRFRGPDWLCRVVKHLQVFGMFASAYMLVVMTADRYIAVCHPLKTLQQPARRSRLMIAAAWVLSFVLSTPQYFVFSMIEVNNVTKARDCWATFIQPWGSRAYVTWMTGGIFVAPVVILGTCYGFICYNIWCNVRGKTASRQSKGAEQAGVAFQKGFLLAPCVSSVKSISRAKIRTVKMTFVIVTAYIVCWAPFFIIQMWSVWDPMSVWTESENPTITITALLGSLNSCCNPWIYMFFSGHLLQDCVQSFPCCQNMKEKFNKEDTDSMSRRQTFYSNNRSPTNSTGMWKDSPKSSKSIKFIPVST", "test": "In-vitro vasopressin receptor binding assay, V1a", "conditions": "for IC50: footnote 1: IC50 values (μM)"}, "cloned human V2 receptor": {"target": "T1, cloned human V2 receptor (Homo sapiens, UniProt P30518)", "T1 construct": "expressed in transfected cells", "test": "In-vitro vasopressin receptor binding assay, V2", "conditions": "3H-arginine-8-vasopressin; for IC50: footnote 1: IC50 values (μM)", "description": "Assay buffer is 50 mM Tris-Cl, 5 mM MgC12, 0.1% BSA (pH 7.5) containing 5 ug/ml of aprotinin, leupeptin, pepstatin, 50 ug/ml bacitracin, and 1 mM Pefabloc. H3 vasopressin is ^3H-arginine-8-vasopressin (68.5 Ci/mmol, final concentration in assay is 0.65-0.75nM). Into wells of 96-well round bottom polypropylene plates are added buffer, test compound, membrane (containing cloned human V2 receptor), and H3 vasopressin. The reaction plates are allowed to sit at room temperature for one hour. The samples are filtered through Unifilter GF/C plates (presoaked in 0.3 polyethyleneimine). The plates are washed 5 times with cold physiological saline containing 0.05% Tween 20. After drying, the bottom of the filter plates are sealed and 0.025 ml of Microscint-20 is added to each filter. The top of the plate is sealed, and the plate is counted. Non-specific binding is determined by the addition of 1.25 uM arginine-8-vasopressin in those wells. %Inh. is [formula]"}},
  "data": [
    {"compound": "2-(2-Aminoethyl)-5-[4-(2-phenylbenzoylamino)benzoyl]-1,5-benzothiazepine [Compound 28]", "values": [
      {"measurement": "Receptor Binding (% Inh. @ concentration in μM) V1a", "setting": "vasopressin V1a receptor; 0.1 μM test compound", "value": 19, "unit": "% @ .1"},
      {"measurement": "Receptor Binding (% Inh. @ concentration in μM) V2", "setting": "cloned human V2 receptor; 0.1 μM test compound", "value": 46, "unit": "% 0.1"}
    ]},
    {"compound": "2-(2-Hydroxyethyl)-5-(4-(2-phenylbenzoylamino)-pyridinoyl)-1,5-benzothiazepine [Compound 40]", "values": [
      {"measurement": "Receptor Binding (% Inh. @ concentration in μM) V1a", "setting": "vasopressin V1a receptor; 0.1 μM test compound", "value": 22, "unit": "% @ .1"},
      {"measurement": "IC50", "setting": "cloned human V2 receptor", "value": 0.03, "unit": "µM"}
    ]},
    {"compound": "2-(2-Hydroxyethyl)-5-(4-(2-phenylbenzoylamino)benzoyl)-1,5-benzothiazepine [Compound 26]", "values": [
      {"measurement": "IC50", "setting": "vasopressin V1a receptor", "value": 0.027, "unit": "µM"},
      {"measurement": "IC50", "setting": "cloned human V2 receptor", "value": 0.007, "unit": "µM"}
    ]},
    {"compound": "2-(2-Hydroxyethyl)-5-(4-(2-phenylbenzoylamino)benzoyl)-1,5-benzothiazepine [Compound 27]", "values": [
      {"measurement": "IC50", "setting": "vasopressin V1a receptor", "value": 0.091, "unit": "µM"},
      {"measurement": "IC50", "setting": "cloned human V2 receptor", "value": 0.014, "unit": "µM"}
    ]},
    {"compound": "2-(2-Hydroxyethyl)-5-(4-aminobenzenesulfonyl)-1,5-benzothiazepine [Compound 4]", "values": [
      {"measurement": "Receptor Binding (% Inh. @ concentration in μM) V1a", "setting": "vasopressin V1a receptor; 10 μM test compound", "value": 21, "unit": "% @ 10"},
      {"measurement": "Receptor Binding (% Inh. @ concentration in μM) V2", "setting": "cloned human V2 receptor; 10 μM test compound", "value": 20, "unit": "% @ 10"}
    ]},
    {"compound": "2-(2-Hydroxyethyl)-5-[2-chloro-4-(2-methyl-5-fluorobenzoylamino)benzoyl]-1,5-benzothiazepine [Compound 43]", "values": [
      {"measurement": "Receptor Binding (% Inh. @ concentration in μM) V1a", "setting": "vasopressin V1a receptor; 0.1 μM test compound", "value": 4, "unit": "% @ .1"},
      {"measurement": "IC50", "setting": "cloned human V2 receptor", "value": 0.028, "unit": "µM"}
    ]},
    {"compound": "2-(2-Hydroxyethyl)-5-[4-(3,4-dichlorobenzoylamino)benzene-sulfonyl]-1,5-benzothiazepine [Compound 10]", "values": [
      {"measurement": "Receptor Binding (% Inh. @ concentration in μM) V1a", "setting": "vasopressin V1a receptor; 10 μM test compound", "value": 0, "unit": "% @ 10"},
      {"measurement": "IC50", "setting": "cloned human V2 receptor", "value": 2.1, "unit": "µM"}
    ]},
    {"compound": "2-(2-Methanesulfonylethyl)-5-(4-(2-methylbenzoylamino)benzoyl)-1,5-benzothiazepine [Compound 13]", "values": [
      {"measurement": "IC50", "setting": "vasopressin V1a receptor", "value": 0.3, "unit": "µM"},
      {"measurement": "IC50", "setting": "cloned human V2 receptor", "value": 0.2, "unit": "µM"}
    ]},
    {"compound": "2-(2-Methanesulfonylethyl)-5-[(4-(2-phenylbenzoylamino)-benzenesulfonyl)]-1,5-benzothiazepine [Compound 20]", "values": [
      {"measurement": "Receptor Binding (% Inh. @ concentration in μM) V1a", "setting": "vasopressin V1a receptor; 1 μM test compound", "value": 24, "unit": "% @ 1"},
      {"measurement": "Receptor Binding (% Inh. @ concentration in μM) V2", "setting": "cloned human V2 receptor; 1 μM test compound", "value": 6, "unit": "% @ 1"}
    ]},
    {"compound": "2-(2-Methanesulfonylethyl)-5-[(4-(2-phenylbenzoylamino)-benzyl)]-1,5-benzothiazepin-4-one [Compound 21]", "values": [
      {"measurement": "Receptor Binding (% Inh. @ concentration in μM) V1a", "setting": "vasopressin V1a receptor; 0.1 μM test compound", "value": 5, "unit": "% @ 0.1"},
      {"measurement": "Receptor Binding (% Inh. @ concentration in μM) V2", "setting": "cloned human V2 receptor; 0.1 μM test compound", "value": 1, "unit": "% @ 0.1"}
    ]},
    {"compound": "2-(2-Methanesulfonylethyl)-5-[(4-(2-phenylbenzoylamino)benzoyl)]-1,5-benzothiazepine [Compound 16]", "values": [
      {"measurement": "IC50", "setting": "vasopressin V1a receptor", "value": 1.2, "unit": "µM"},
      {"measurement": "IC50", "setting": "cloned human V2 receptor", "value": 0.013, "unit": "µM"}
    ]},
    {"compound": "2-[N-(tert-butoxycarbonyl)-ethyl]-5-[4-(2-methylbenzoylamino)-benzyl]-1,5-benzothiazepine-4-one [Compound 6]", "values": [
      {"measurement": "Receptor Binding (% Inh. @ concentration in μM) V1a", "setting": "vasopressin V1a receptor; 10 μM test compound", "value": 13, "unit": "% @ 10"},
      {"measurement": "Receptor Binding (% Inh. @ concentration in μM) V2", "setting": "cloned human V2 receptor; 10 μM test compound", "value": 22, "unit": "% @ 10"}
    ]},
    {"compound": "CC(=O)Nc1ccc(S(=O)(=O)N2CCC(CCN(C)C)Sc3ccccc32)cc1", "note": "(stereo not shown) [Compound 1]", "values": [
      {"measurement": "Receptor Binding (% Inh. @ concentration in μM) V1a", "setting": "vasopressin V1a receptor; 25 μM test compound", "value": 14, "unit": "% @ 25"},
      {"measurement": "Receptor Binding (% Inh. @ concentration in μM) V2", "setting": "cloned human V2 receptor; 25 μM test compound", "value": 7, "unit": "% @ 25"}
    ]},
    {"compound": "Cc1ccccc1C(=O)Nc1ccc(S(=O)(=O)N2CCC(CCN(C)C)Sc3ccccc32)cc1", "note": "(stereo not shown) [Compound 2, 2-(2-Dimethylaminoethyl)-5-(4-(2-methylbenzoylamino)-benzenesulfonyl]-1,5-benzothiazepine]", "values": [
      {"measurement": "Receptor Binding (% Inh. @ concentration in μM) V1a", "setting": "vasopressin V1a receptor; 25 μM test compound", "value": 29, "unit": "% @ 25"},
      {"measurement": "Receptor Binding (% Inh. @ concentration in μM) V2", "setting": "cloned human V2 receptor; 25 μM test compound", "value": 34, "unit": "% @ 25"}
    ]},
    {"compound": "Cc1ccccc1C(=O)Nc1ccc(S(=O)(=O)N2CCC(CCN3CCOCC3)Sc3ccccc32)cc1", "note": "(stereo not shown) [Compound 3, 2-[2-(N-Morpholino)-ethyl]-5-[4-(2-methylbenzoylamino)-benzenesulfonyl]-1,5-benzothiazepine]", "values": [
      {"measurement": "Receptor Binding (% Inh. @ concentration in μM) V1a", "setting": "vasopressin V1a receptor; 25 μM test compound", "value": 47, "unit": "% @ 25"},
      {"measurement": "Receptor Binding (% Inh. @ concentration in μM) V2", "setting": "cloned human V2 receptor; 25 μM test compound", "value": 37, "unit": "% @ 25"}
    ]},
    {"compound": "Cc1ccccc1C(=O)Nc1ccc(S(=O)(=O)N2CCC(CCO)Sc3ccccc32)cc1", "note": "(stereo not shown) [Compound 5]", "values": [
      {"measurement": "Receptor Binding (% Inh. @ concentration in μM) V1a", "setting": "vasopressin V1a receptor; 10 μM test compound", "value": 13, "unit": "% @ 10"},
      {"measurement": "IC50", "setting": "cloned human V2 receptor", "value": 0.76, "unit": "µM"}
    ]},
    {"compound": "Cc1ccccc1C(=O)Nc1ccc(CN2C(=O)CC(CCN)Sc3ccccc32)cc1", "note": "(stereo not shown) [Compound 7, 2-(2-Aminoethyl)-5-[4-(2-methylbenzoylamino)-benzyl]-1,5-benzothiazepine-4-one]", "values": [
      {"measurement": "Receptor Binding (% Inh. @ concentration in μM) V1a", "setting": "vasopressin V1a receptor; 10 μM test compound", "value": 10, "unit": "% @ 10"},
      {"measurement": "Receptor Binding (% Inh. @ concentration in μM) V2", "setting": "cloned human V2 receptor; 10 μM test compound", "value": 4, "unit": "% @ 10"}
    ]}
  ]
}
